# From PubChem BioAssay (NCI)
#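 Step 1: Grow cells in 96-well plates. Step 2: Expose to compound for 48 hours at 5 concentrations. Step 3: Interpolate endpoints linearly; if unreached, use highest concentration. At the GI50, growth is halved. At the TGI there is no net growth.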
# What was measured:
# Assay in all cases: growth of human tumour cells (NCI), 48 h
# [1] = test system: TK-10 renal
# [2] = test system: RXF 393 renal
# [3] = test system: ACHN renal
# [4] = test system: SF-295 CNS
# [5] = test system: SN12C renal
# [6] = test system: OVCAR-4 ovarian
# [7] = test system: CAKI-1 renal
# [8] = test system: LOX IMVI melanoma
# [9] = test system: HS 578T breast
# [10] = test system: HT29 colon
# [11] = test system: T-47D breast
# [12] = test system: SK-OV-3 ovarian
# [13] = test system: K-562 leukemia
# [14] = test system: HCC-2998 colon
# [15] = test system: NCI-H23 lung
# [16] = test system: UO-31 renal
# [17] = test system: EKVX NSCLC
# [18] = test system: UACC-257 melanoma
# [19] = test system: RPMI-8226 leukemia
# [20] = test system: OVCAR-5 ovarian
# [21] = test system: SW-620 colon
# [22] = test system: NCI-H460 lung
# [23] = test system: NCI-H522 lung
# [24] = test system: NCI/ADR-RES ovarian
# [25] = test system: SK-MEL-28 melanoma
# [26] = test system: MALME-3M melanoma
# [27] = test system: 786-0 renal
# [28] = test system: HOP-92 NSCLC
# [29] = test system: SK-MEL-5 melanoma
# [30] = test system: COLO 205 colon
# [31] = test system: SF-539 CNS
# [32] = test system: HCT-116 colon
# [33] = test system: SNB-19 CNS
# [34] = test system: UACC-62 melanoma
# [35] = test system: IGROV1 ovarian
# [36] = test system: HL-60(TB) leukemia
# [37] = test system: MDA-MB-231 breast
# [38] = test system: MOLT-4 leukemia
# [39] = test system: OVCAR-8 ovarian
# [40] = test system: SR leukemia
# [41] = test system: NCI-H226 lung
# [42] = test system: DU-145 prostate
# [43] = test system: OVCAR-3 ovarian
# [44] = test system: MDA-MB-435
# [45] = test system: CCRF-CEM leukemia
# [46] = test system: HOP-62 NSCLC
# [47] = test system: SK-MEL-2 melanoma
# [48] = test system: KM12 colon
# [49] = test system: HCT-15 colon
# [50] = test system: SF-268 CNS
# [51] = test system: MCF7 breast
# [52] = test system: U251 CNS
# [53] = test system: SNB-75 CNS
# [54] = test system: A549 NSCLC
# [55] = test system: PC-3 prostate
# [56] = test system: M14 melanoma
# [57] = test system: A498 renal
# [58] = test system: BT-549 breast
smiles,measurement,setting,value
Cc1ccc(/C=C/C(=N/N=C(N)N)c2ccccc2)cc1,GI50,[1],3890 nM
same,TGI,[1],12000 nM
same,GI50,[2],1620 nM
same,TGI,[2],4030 nM
same,GI50,[3],4170 nM
same,TGI,[3],17400 nM
same,GI50,[4],2990 nM
same,TGI,[4],13100 nM
same,GI50,[5],4500 nM
same,TGI,[5],16900 nM
same,GI50,[6],3650 nM
same,TGI,[6],15600 nM
same,GI50,[7],8970 nM
same,TGI,[7],25100 nM
same,GI50,[8],3280 nM
same,TGI,[8],15500 nM
same,GI50,[9],1560 nM
same,TGI,[9],5140 nM
same,GI50,[10],2530 nM
same,TGI,[10],7590 nM
same,GI50,[11],4300 nM
same,TGI,[11],18100 nM
same,GI50,[12],2990 nM
same,TGI,[12],12200 nM
same,GI50,[13],889 nM
same,TGI,[13],10400 nM
same,GI50,[14],3110 nM
same,TGI,[14],11800 nM
same,GI50,[15],2760 nM
same,TGI,[15],11800 nM
same,GI50,[16],3750 nM
same,TGI,[16],17200 nM
same,GI50,[17],10100 nM
same,TGI,[17],28000 nM
same,GI50,[18],2960 nM
same,TGI,[18],12900 nM
same,GI50,[19],2300 nM
same,TGI,[19],7980 nM
same,GI50,[20],2970 nM
same,TGI,[20],12400 nM
same,GI50,[21],2470 nM
same,TGI,[21],13800 nM
same,GI50,[22],3100 nM
same,TGI,[22],10100 nM
same,GI50,[23],1800 nM
same,TGI,[23],5120 nM
same,GI50,[24],3140 nM
same,TGI,[24],12000 nM
same,GI50,[25],3950 nM
same,TGI,[25],15800 nM
same,GI50,[26],3800 nM
same,TGI,[26],20200 nM
same,GI50,[27],2410 nM
same,TGI,[27],6530 nM
same,GI50,[28],2250 nM
same,TGI,[28],8420 nM
same,GI50,[29],1690 nM
same,TGI,[29],3860 nM
same,GI50,[30],1690 nM
same,TGI,[30],3740 nM
same,GI50,[31],2750 nM
same,TGI,[31],8650 nM
same,GI50,[32],3050 nM
same,TGI,[32],12200 nM
same,GI50,[33],4210 nM
same,TGI,[33],17300 nM
same,GI50,[34],2650 nM
same,TGI,[34],11900 nM
same,GI50,[35],6360 nM
same,TGI,[35],23100 nM
same,GI50,[36],2280 nM
same,TGI,[36],4750 nM
same,GI50,[37],1700 nM
same,TGI,[37],4560 nM
same,GI50,[38],3010 nM
same,TGI,[38],9100 nM
same,GI50,[39],2980 nM
same,TGI,[39],10900 nM
same,GI50,[40],897 nM
same,TGI,[40],6320 nM
same,GI50,[41],3090 nM
same,TGI,[41],12600 nM
same,GI50,[42],3330 nM
same,TGI,[42],10800 nM
same,GI50,[43],2280 nM
same,TGI,[43],6030 nM
same,GI50,[44],432 nM
same,TGI,[44],4930 nM
same,GI50,[45],2340 nM
same,TGI,[45],18900 nM
same,GI50,[46],3570 nM
same,TGI,[46],16000 nM
same,GI50,[47],2750 nM
same,TGI,[47],8040 nM
same,GI50,[48],2970 nM
same,TGI,[48],13200 nM
same,GI50,[49],2740 nM
same,TGI,[49],13800 nM
same,GI50,[50],4130 nM
same,TGI,[50],16300 nM
same,GI50,[51],465 nM
same,TGI,[51],12400 nM
same,GI50,[52],3100 nM
same,TGI,[52],12500 nM
same,GI50,[53],2040 nM
same,TGI,[53],7410 nM
same,GI50,[54],3460 nM
same,TGI,[54],12500 nM
same,GI50,[55],3320 nM
same,TGI,[55],16900 nM
same,GI50,[56],1670 nM
same,TGI,[56],3950 nM
same,GI50,[57],1040 nM
same,TGI,[57],4920 nM
C#CC[C@@H]1C[C@]2(C)[C@H]3CC=C4[C@H]5[C@@H](C)[C@H](C)CC[C@]5(C(=O)NCCCN5CCN(CCCN)CC5)CC[C@@]4(C)[C@]3(C)CC[C@H]2C(C)(C)[C@H]1OC(C)=O,GI50,[20],1610 nM
same,TGI,[20],3020 nM
NCCCn1c2c(c3ccc([N+](=O)[O-])cc3c1=O)C(=O)c1cc(-c3ccccc3)ccc1-2,GI50,[2],1360 nM
same,TGI,[2],2790 nM
same,GI50,[3],1560 nM
same,TGI,[3],3080 nM
same,GI50,[4],1790 nM
same,TGI,[4],3450 nM
same,GI50,[5],824 nM
same,TGI,[5],2340 nM
same,GI50,[6],399 nM
same,TGI,[6],1620 nM
same,GI50,[7],1670 nM
same,TGI,[7],3210 nM
same,GI50,[8],916 nM
same,TGI,[8],2590 nM
same,GI50,[10],190 nM
same,TGI,[10],368 nM
same,GI50,[13],44.3 nM
same,TGI,[13],185 nM
same,GI50,[14],310 nM
same,TGI,[14],1270 nM
same,GI50,[15],1290 nM
same,TGI,[15],2880 nM
same,GI50,[16],1730 nM
same,TGI,[16],3410 nM
same,GI50,[17],1610 nM
same,TGI,[17],3450 nM
same,GI50,[18],1850 nM
same,TGI,[18],3460 nM
same,GI50,[19],348 nM
same,TGI,[19],1450 nM
same,GI50,[20],1480 nM
same,TGI,[20],2950 nM
same,GI50,[21],182 nM
same,TGI,[21],336 nM
same,GI50,[22],340 nM
same,TGI,[22],1380 nM
same,GI50,[23],220 nM
same,TGI,[23],467 nM
same,GI50,[24],1840 nM
same,TGI,[24],3760 nM
same,GI50,[25],1510 nM
same,TGI,[25],3130 nM
same,GI50,[27],181 nM
same,TGI,[27],334 nM
same,GI50,[28],1360 nM
same,TGI,[28],3150 nM
same,GI50,[29],1310 nM
same,TGI,[29],2620 nM
same,GI50,[31],1370 nM
same,TGI,[31],2840 nM
same,GI50,[32],172 nM
same,TGI,[32],315 nM
same,GI50,[34],1550 nM
same,TGI,[34],3000 nM
same,GI50,[36],500 nM
same,TGI,[36],1300 nM
same,GI50,[37],1290 nM
same,TGI,[37],2850 nM
same,GI50,[38],235 nM
same,TGI,[38],595 nM
same,GI50,[39],310 nM
same,TGI,[39],884 nM
same,GI50,[40],183 nM
same,TGI,[40],460 nM
same,GI50,[42],491 nM
same,TGI,[42],1020 nM
same,GI50,[43],1650 nM
same,TGI,[43],3100 nM
same,GI50,[44],1650 nM
same,TGI,[44],3110 nM
same,GI50,[45],238 nM
same,TGI,[45],712 nM
same,GI50,[46],406 nM
same,TGI,[46],1460 nM
same,GI50,[47],438 nM
same,TGI,[47],1270 nM
same,GI50,[48],291 nM
same,TGI,[48],818 nM
same,GI50,[58],2090 nM
same,TGI,[58],3770 nM
same,GI50,[49],187 nM
same,TGI,[49],365 nM
same,GI50,[51],357 nM
same,TGI,[51],1320 nM
same,GI50,[52],172 nM
same,TGI,[52],313 nM
same,GI50,[53],579 nM
same,TGI,[53],1870 nM
same,GI50,[54],237 nM
same,TGI,[54],552 nM
same,GI50,[55],1350 nM
same,TGI,[55],2710 nM
same,GI50,[56],1120 nM
same,TGI,[56],2370 nM
same,GI50,[57],694 nM
same,TGI,[57],1540 nM
